From patent publication US20260285850A1, “SUBSTITUTED OXAZOLIDINONES AND IMIDAZOLINONES AS HERBICIDES” (FMC CORPORATION, priority 2023, published 2026)

Columns and labels:
Format in all cases: in vivo
[1] = system: barnyardgrass (Echinochloa crus-galli); assay: Test A preemergence soil spray, visual injury rating 0-100; conditions: 10 days, 0 = no effect, 100 = complete control; for Barnyardgrass plant response rating (0-100): 31 g ai/ha; for Barnyardgrass plant response rating (0 to 100 scale): 125 g ai/ha
How it was run: (§1)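 Grow plants in loam soil blended with sand. Apply formulated compound (non-phytotoxic solvent, surfactant) as a directed soil spray before emergence, or to plants at the one- to two-leaf stage after emergence. Hold in greenhouse 10 days, then rate injury visually versus untreated controls on a 0-100 scale.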

[2] = system: blackgrass (Alopecurus myosuroides); assay: as above; conditions: 10 days, 0 = no effect, 100 = complete control; for Blackgrass plant response rating (0-100): 31 g ai/ha; for Blackgrass plant response rating (0 to 100 scale): 125 g ai/ha
How it was run: as §1

corn (Zea mays) [3] = assay: as above; conditions: 10 days, 0 = no effect, 100 = complete control; for Corn plant response rating (0-100): 31 g ai/ha; for Corn plant response rating (0 to 100 scale): 125 g ai/ha
How it was run: as §1

kochia (Bassia scoparia) [4] = assay: as above; conditions: 10 days, 0 = no effect, 100 = complete control; for Kochia plant response rating (0-100): 31 g ai/ha; for Kochia plant response rating (0 to 100 scale): 125 g ai/ha
How it was run: as §1

[5] = system: oat, wild (wild oat, Avena fatua); assay: as above; conditions: 10 days, 0 = no effect, 100 = complete control; for Oat, Wild plant response rating (0-100): 31 g ai/ha; for Oat, Wild plant response rating (0 to 100 scale): 125 g ai/ha
How it was run: as §1

[6] = system: palmer (palmer amaranth, palmer pigweed, Amaranthus palmeri); assay: as above; conditions: 10 days, 0 = no effect, 100 = complete control; for Amaranth, Palmer plant response rating (0-100): 31 g ai/ha; for Amaranth, Palmer plant response rating (0 to 100 scale): 125 g ai/ha
How it was run: as §1

[7] = system: ragweed (common ragweed, Ambrosia artemisiifolia); assay: as above; conditions: 10 days, 0 = no effect, 100 = complete control; for Ragweed plant response rating (0-100): 31 g ai/ha; for Ragweed plant response rating (0 to 100 scale): 125 g ai/ha
How it was run: as §1

[8] = system: ryegrass, Italian (italian ryegrass, Lolium multiflorum); assay: as above; conditions: 10 days, 0 = no effect, 100 = complete control; for Ryegrass, Italian plant response rating (0-100): 31 g ai/ha; for Ryegrass, Italian plant response rating (0 to 100 scale): 125 g ai/ha
How it was run: as §1

soybean (Glycine max) [9] = assay: as above; conditions: 10 days, 0 = no effect, 100 = complete control; for Soybean plant response rating (0-100): 31 g ai/ha; for Soybean plant response rating (0 to 100 scale): 125 g ai/ha
How it was run: as §1

[10] = system: wheat (Triticum aestivum); assay: as above; conditions: 10 days, 0 = no effect, 100 = complete control; for Wheat plant response rating (0-100): 31 g ai/ha; for Wheat plant response rating (0 to 100 scale): 125 g ai/ha
How it was run: as §1

[11] = system: barnyardgrass (Echinochloa crus-galli); assay: Test A postemergence application, visual injury rating 0-100; conditions: for Barnyardgrass plant response rating (0 to 100 scale): Postemergence
How it was run: as §1

[12] = system: blackgrass (Alopecurus myosuroides); assay: as above; conditions: for Blackgrass plant response rating (0 to 100 scale): Postemergence
How it was run: as §1

corn (Zea mays) [13] = assay: as above; conditions: for Corn plant response rating (0 to 100 scale): Postemergence
How it was run: as §1

[14] = system: galium (catchweed bedstraw, Galium aparine); assay: as above; conditions: for Galium plant response rating (0 to 100 scale): Postemergence
How it was run: as §1

[15] = system: horseweed (Erigeron canadensis); assay: as above; conditions: for Horseweed plant response rating (0 to 100 scale): Postemergence
How it was run: as §1

kochia (Bassia scoparia) [16] = assay: as above; conditions: for Kochia plant response rating (0 to 100 scale): Postemergence
How it was run: as §1

[17] = system: oat, wild (wild oat, Avena fatua); assay: as above; conditions: for Oat, Wild plant response rating (0 to 100 scale): Postemergence
How it was run: as §1

[18] = system: palmer (palmer amaranth, palmer pigweed, Amaranthus palmeri); assay: as above; conditions: for Amaranth, Palmer / Pigweed, Palmer plant response rating (0 to 100 scale): Postemergence
How it was run: as §1

[19] = system: ragweed (common ragweed, Ambrosia artemisiifolia); assay: as above; conditions: for Ragweed plant response rating (0 to 100 scale): Postemergence
How it was run: as §1

[20] = system: ryegrass, Italian (italian ryegrass, Lolium multiflorum); assay: as above; conditions: for Ryegrass, Italian plant response rating (0 to 100 scale): Postemergence
How it was run: as §1

soybean (Glycine max) [21] = assay: as above; conditions: for Soybean plant response rating (0 to 100 scale): Postemergence
How it was run: as §1

[22] = system: wheat (Triticum aestivum); assay: as above; conditions: for Wheat plant response rating (0 to 100 scale): Postemergence
How it was run: as §1

[23] = system: barnyardgrass (Echinochloa crusgalli); assay: Test B flooded paddy test, visual plant response rating 0-100; conditions: 250 g ai/ha, Flood, applied to paddy water, evaluated after 13 days
How it was run: (§2)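 Paddy-water application: test compounds went directly into water flooded 3 cm above the soil surface, with plants at 2 leaves. After a 13-day greenhouse period, responses were judged by eye relative to controls; a dash marks an untested entry.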

[24] = system: ducksalad (Heteranthera limosa); assay: as above; conditions: 250 g ai/ha, Flood, applied to paddy water, evaluated after 13 days
How it was run: as §2

rice (Oryza sativa) = assay: as above; conditions: 250 g ai/ha, Flood, applied to paddy water, evaluated after 13 days
How it was run: as §2

[25] = system: sedge, umbrella (small-flower umbrella sedge, Cyperus difformis); assay: as above; conditions: 250 g ai/ha, Flood, applied to paddy water, evaluated after 13 days
How it was run: as §2

[26] = 31 g ai/ha, greenhouse 10 days, 0 no effect, 100 complete control
[27] = 125 g ai/ha, 10 days, 0 is no effect, 100 is complete control
[28] = 31 g ai/ha, postemergence, 10 days, 0 = no effect, 100 = complete control

## CC1(C(=O)NC2CC=C(C(=O)OCC(F)(F)F)C2)CN(c2cc(Cl)cc(Cl)c2)C(=O)O1 (stereo not drawn) [Compound 71]
[1]
  Barnyardgrass plant response rating (0-100): 50
  Barnyardgrass plant response rating (0 to 100 scale): 90
[2]
  Blackgrass plant response rating (0-100): 0
  Blackgrass plant response rating (0 to 100 scale): 50
Corn (Zea mays) [3]
  Corn plant response rating (0-100): 30
  Corn plant response rating (0 to 100 scale): 50
Kochia (Bassia scoparia) [4]
  Kochia plant response rating (0-100): 70
  Kochia plant response rating (0 to 100 scale): 90
[5]
  Oat, Wild plant response rating (0-100): 20
  Oat, Wild plant response rating (0 to 100 scale): 30
[6]
  Amaranth, Palmer plant response rating (0-100): 90
  Amaranth, Palmer plant response rating (0 to 100 scale): 100
[7]
  Ragweed plant response rating (0-100): 0
  Ragweed plant response rating (0 to 100 scale): 30
[8]
  Ryegrass, Italian plant response rating (0-100): 40
  Ryegrass, Italian plant response rating (0 to 100 scale): 70
Soybean (Glycine max) [9]
  Soybean plant response rating (0-100): 10
  Soybean plant response rating (0 to 100 scale): 70
[10]
  Wheat plant response rating (0-100): 60
  Wheat plant response rating (0 to 100 scale): 90
[11]; [26]
  Barnyardgrass plant response rating (0 to 100 scale): 90
[11]; [27]
  Barnyardgrass plant response rating (0 to 100 scale): 90
[12]; [26]
  Blackgrass plant response rating (0 to 100 scale): 80
[12]; [27]
  Blackgrass plant response rating (0 to 100 scale): 90
Corn (Zea mays) [13]; [26]
  Corn plant response rating (0 to 100 scale): 100
Corn (Zea mays) [13]; [27]
  Corn plant response rating (0 to 100 scale): 100
[14]; [26]
  Galium plant response rating (0 to 100 scale): 80
[14]; [27]
  Galium plant response rating (0 to 100 scale): 80
[15]; [26]
  Horseweed plant response rating (0 to 100 scale): 10
[15]; [27]
  Horseweed plant response rating (0 to 100 scale): 70
Kochia (Bassia scoparia) [16]; [26]
  Kochia plant response rating (0 to 100 scale): 80
Kochia (Bassia scoparia) [16]; [27]
  Kochia plant response rating (0 to 100 scale): 90
[17]; [26]
  Oat, Wild plant response rating (0 to 100 scale): 40
[17]; [27]
  Oat, Wild plant response rating (0 to 100 scale): 90
[18]; [26]
  Amaranth, Palmer / Pigweed, Palmer plant response rating (0 to 100 scale): 90
[18]; [27]
  Amaranth, Palmer / Pigweed, Palmer plant response rating (0 to 100 scale): 90
[19]; [26]
  Ragweed plant response rating (0 to 100 scale): 60
[19]; [27]
  Ragweed plant response rating (0 to 100 scale): 60
[20]; [26]
  Ryegrass, Italian plant response rating (0 to 100 scale): 60
[20]; [27]
  Ryegrass, Italian plant response rating (0 to 100 scale): 70
Soybean (Glycine max) [21]; [26]
  Soybean plant response rating (0 to 100 scale): 70
Soybean (Glycine max) [21]; [27]
  Soybean plant response rating (0 to 100 scale): 90
[22]; [26]
  Wheat plant response rating (0 to 100 scale): 80
[22]; [27]
  Wheat plant response rating (0 to 100 scale): 90
[23]
  Plant response rating, Barnyardgrass (0 to 100 scale, 0 is no effect and 100 is complete control): 80
[24]
  Plant response rating, Ducksalad (0 to 100 scale, 0 is no effect and 100 is complete control): 70
Rice (Oryza sativa)
  Plant response rating, Rice (0 to 100 scale, 0 is no effect and 100 is complete control): 85
[25]
  Plant response rating, Sedge, Umbrella (0 to 100 scale, 0 is no effect and 100 is complete control): 100

## CCOC(=O)C1=CCC(NC(=O)C2(C)CN(c3cc(Cl)cc(Cl)c3)C(=O)O2)C1 (stereo not drawn) [Compound 60]
[1]
  Barnyardgrass plant response rating (0-100): 60
  Barnyardgrass plant response rating (0 to 100 scale): 100
[2]
  Blackgrass plant response rating (0-100): 0
  Blackgrass plant response rating (0 to 100 scale): 50
Corn (Zea mays) [3]
  Corn plant response rating (0-100): 0
  Corn plant response rating (0 to 100 scale): 60
Kochia (Bassia scoparia) [4]
  Kochia plant response rating (0-100): 40
  Kochia plant response rating (0 to 100 scale): 90
[5]
  Oat, Wild plant response rating (0-100): 0
  Oat, Wild plant response rating (0 to 100 scale): 20
[6]
  Amaranth, Palmer plant response rating (0-100): 100
  Amaranth, Palmer plant response rating (0 to 100 scale): 100
[7]
  Ragweed plant response rating (0-100): 30
  Ragweed plant response rating (0 to 100 scale): 60
[8]
  Ryegrass, Italian plant response rating (0-100): 60
  Ryegrass, Italian plant response rating (0 to 100 scale): 90
Soybean (Glycine max) [9]
  Soybean plant response rating (0-100): 10
  Soybean plant response rating (0 to 100 scale): 40
[10]
  Wheat plant response rating (0-100): 20
  Wheat plant response rating (0 to 100 scale): 80
[11]; [28]
  Barnyardgrass plant response rating (0-100): 90
[11]; [27]
  Barnyardgrass plant response rating (0 to 100 scale): 90
[12]; [28]
  Blackgrass plant response rating (0-100): 90
[12]; [27]
  Blackgrass plant response rating (0 to 100 scale): 100
Corn (Zea mays) [13]; [28]
  Corn plant response rating (0-100): 90
Corn (Zea mays) [13]; [27]
  Corn plant response rating (0 to 100 scale): 100
[14]; [28]
  Galium plant response rating (0-100): 90
[14]; [27]
  Galium plant response rating (0 to 100 scale): 90
[15]; [28]
  Horseweed plant response rating (0-100): 70
[15]; [27]
  Horseweed plant response rating (0 to 100 scale): 90
Kochia (Bassia scoparia) [16]; [28]
  Kochia plant response rating (0-100): 80
Kochia (Bassia scoparia) [16]; [27]
  Kochia plant response rating (0 to 100 scale): 80
[17]; [28]
  Oat, Wild plant response rating (0-100): 10
[17]; [27]
  Oat, Wild plant response rating (0 to 100 scale): 90
[18]; [28]
  Amaranth, Palmer plant response rating (0-100): 90
[18]; [27]
  Amaranth, Palmer / Pigweed, Palmer plant response rating (0 to 100 scale): 100
[19]; [28]
  Ragweed plant response rating (0-100): 0
[19]; [27]
  Ragweed plant response rating (0 to 100 scale): 20
[20]; [28]
  Ryegrass, Italian plant response rating (0-100): 90
[20]; [27]
  Ryegrass, Italian plant response rating (0 to 100 scale): 100
Soybean (Glycine max) [21]; [28]
  Soybean plant response rating (0-100): 90
Soybean (Glycine max) [21]; [27]
  Soybean plant response rating (0 to 100 scale): 100
[22]; [28]
  Wheat plant response rating (0-100): 40
[22]; [27]
  Wheat plant response rating (0 to 100 scale): 90
[23]
  Plant response rating, Barnyardgrass (0 to 100 scale, 0 is no effect and 100 is complete control): 70
[24]
  Plant response rating, Ducksalad (0 to 100 scale, 0 is no effect and 100 is complete control): 95
Rice (Oryza sativa)
  Plant response rating, Rice (0 to 100 scale, 0 is no effect and 100 is complete control): 65
[25]
  Plant response rating, Sedge, Umbrella (0 to 100 scale, 0 is no effect and 100 is complete control): 100
